Reference: patent publication US20260287586A1, “METHODS OF TREATING TKI-RESISTANT AND SDH-DEFICIENT GIST” (priority 2023, published 2026)
Like-named read-outs stand apart in the source and are kept apart here.

Tests used:
[1] = system: SDH-deficient primary GIST cells; assay: Antiproliferation in SDH-deficient primary GIST cells (CellTiter 96 Aqueous assay, 72 hours); type: cell-based, human; conditions: all three primary cell lines derived from patients with SDH-deficient GIST
Experimental: Cells were seeded into 6-well plates and incubated overnight in complete culture medium.
All samples were collected at Sun Yat-sen University Cancer Center with informed consent obtained from each subject. The study, which involved human subjects, was approved by the Medical Ethics Committee of Sun Yat-sen University Cancer Center.
The tissues from GIST patient samples were sustained in Dulbecco's modified Eagle medium (DMEM)/F12 medium containing 1% antibiotic and washed with phosphate-buffered saline (PBS) and then cut into fragments by surgical ophthalmic scissors. The tissues were digested with 1 mg/mL collagenase IV at 37° C. for 30 minutes, followed by filtration of the suspension into single cells with a single-cell strainer centrifugation. […] The procedures were performed as per manufacturers' instructions.

[2] = for AUClast: fed, Day 27 steady state, mean (SD)
Experimental: Noncompartmental pharmacokinetic (PK) analysis was conducted using Phoenix WinNonlin software (Version 6.4).

[3] = system: BCL-XL and MCL-1 protein expression; assay: Mechanism study: BCL-XL and MCL-1 protein expression; type: cell-based; conditions: possibly via inhibition of KIT signal pathway and STAT3
Source text: Therefore, selective inhibition of BCL-2, aided by TKI-mediated MCL-1 and BCL-XL inhibition, markedly augmented cleavage of caspase-3 and poly(ADP-ribose) polymerase 1 (PARP-1), thus triggering apoptosis and subsequently enhancing antitumor effects.

Which “potency rank among TKIs” value [1] does the source give for Cc1ccc(C(=O)Nc2ccc(CN3CCN(C)CC3)c(C(F)(F)F)c2)cc1C#Cc1cnc2[nH]ncc2c1 [Olverembatinib, olverembatinib] here?
Its value is “most potent inhibitor”.

What about the AUClast ([2]; 20 mg QOD oral, 2 subjects) of the same molecule?
Its AUClast is 228 ± 6.4 h*ng/m.

What about the AUClast ([2]; 30 mg QOD oral, 4 subjects) of the same molecule?
Its AUClast is 307 ± 121 h*ng/m.

What about the AUClast ([2]; 40 mg QOD oral, 15 subjects) of the same molecule?
The AUClast was 473 ± 177 h*ng/m.

What about the AUClast ([2]; 50 mg QOD oral, 3 subjects) of the same molecule?
Its AUClast is 518 ± 174 h*ng/m.

What about the “accumulation after multiple-dose administration” value ([2]; 20 to 50 mg QOD) of the same molecule?
The value was “no significant accumulation”.

And the “dose proportionality of Cmax and AUClast” value ([2]; dose range of 20 to 50 mg)?
Its value is “approximately dose-proportional increase”.

And the “effect on BCL-XL and MCL-1 protein expression” value [3]?
Its value is “downregulate BCL-XL and MCL-1 protein expression”.
